Holding throughout (type): biochemical
The target of one assay is T1, PlsX (Enterococcus faecalis, UniProt Q82ZE8).
T1 construct: N-terminal hexahistidine tag, expressed from pZL391 in E. coli, purified
T1 sequence (Q82ZE8 1-333): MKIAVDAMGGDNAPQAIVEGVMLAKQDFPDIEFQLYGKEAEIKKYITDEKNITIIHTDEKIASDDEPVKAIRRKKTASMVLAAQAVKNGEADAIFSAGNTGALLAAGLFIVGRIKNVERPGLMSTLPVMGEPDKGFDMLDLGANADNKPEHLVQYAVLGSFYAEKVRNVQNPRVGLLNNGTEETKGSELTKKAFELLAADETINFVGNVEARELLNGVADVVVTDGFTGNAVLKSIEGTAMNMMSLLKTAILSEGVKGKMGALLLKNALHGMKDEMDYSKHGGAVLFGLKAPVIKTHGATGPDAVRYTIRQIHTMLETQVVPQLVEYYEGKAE
As to the kind of experiment: acyl transfer to holo-ACP, urea-PAGE. Conditions: acyl acceptor holo-AcpB of E. faecalis; 0.05 uM PlsX, 0.75 mM Mg2+, 0.5 mM DTT, 0.1 M HEPES pH 7.0, 37 C.

The next assay concerns the target T2, AasS (Vibrio harveyi, UniProt Q00IB3).
T2 construct: N-terminal hexahistidine tag, expressed from pYFJ84, nickel-chelate purified; used to prepare acyl-ACPs
The experiment in a line: acyl-ACP synthesis, urea-PAGE. Particulars: acceptor holo-AcpA or holo-AcpB of E. faecalis; 2 mM ATP, 200 uM acid, 37 C.

For another assay, the target named is T3, AcpS (Enterococcus faecalis, UniProt Q820V0).
T3 construct: N-terminal hexahistidine tag, expressed from pZL311, nickel-chelate purified
T3 sequence (Q820V0 1-117): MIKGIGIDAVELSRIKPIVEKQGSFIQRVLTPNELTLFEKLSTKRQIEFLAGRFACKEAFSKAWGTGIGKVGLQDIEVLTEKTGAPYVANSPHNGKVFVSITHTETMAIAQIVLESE
As to the kind of experiment: conversion of apo-ACP to holo-ACP, PAGE. Conditions: acceptor apo-AcpA or apo-AcpB of E. faecalis; Mg2+, Tris-HCl pH 8.0, 37 C.

T2 sequence (Q00IB3 entry or part of it): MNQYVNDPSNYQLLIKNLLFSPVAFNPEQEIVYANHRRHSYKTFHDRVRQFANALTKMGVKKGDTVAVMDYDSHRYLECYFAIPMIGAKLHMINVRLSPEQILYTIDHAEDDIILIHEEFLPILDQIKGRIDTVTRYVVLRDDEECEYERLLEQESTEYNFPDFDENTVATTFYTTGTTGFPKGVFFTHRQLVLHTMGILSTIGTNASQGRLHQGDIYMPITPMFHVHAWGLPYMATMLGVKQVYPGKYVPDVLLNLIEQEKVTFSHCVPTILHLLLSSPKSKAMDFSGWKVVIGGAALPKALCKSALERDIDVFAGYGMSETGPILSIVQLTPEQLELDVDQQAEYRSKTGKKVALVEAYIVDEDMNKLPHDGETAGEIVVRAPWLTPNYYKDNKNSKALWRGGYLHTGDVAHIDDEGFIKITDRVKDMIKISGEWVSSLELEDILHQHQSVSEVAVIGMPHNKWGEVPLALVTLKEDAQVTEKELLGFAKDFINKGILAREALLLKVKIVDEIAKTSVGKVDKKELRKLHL

For the compound `CCCCCCCCCCCCCCCCCC(=O)OP(=O)(O)O` [stearoyl-phosphate], the “acyl transfer to holo-ACP, urea-PAGE” value on PlsX was “AcpB was fully converted into acyl-AcpB when stearoyl-phosphate (C18:0-PO4) or oleyl-phosphate (C18:1-PO4)”.
On to `CCCCCCC/C=C/C(=O)O` [trans-2-decenoic acid], for which the “acyl-ACP synthesis, urea-PAGE” value at AasS is “Incubation of the holo proteins with AasS, ATP, and trans-2-decenoic acid resulted in trans-2-decenoyl-AcpA”.
Consider `CC(C)(COP(=O)(O)OP(=O)(O)OC[C@H]1O[C@@H](n2cnc3c(N)ncnc32)[C@H](O)[C@@H]1OP(=O)(O)O)[C@@H](O)C(=O)NCCC(=O)NCCS` [CoA], for which the “conversion of apo-ACP to holo-ACP, PAGE” value at AcpS is “treated with E. faecalis AcpS and coenzyme A (CoA)”.

The values above are taken from publication PMC6509188, “Enterococcus faecalis Encodes an Atypical Auxiliary Acyl Carrier Protein Required for Efficient Regulation of Fatty Acid Synthesis by Exogenous Fatty Acids” (mBio, 2019).
